Measured values: US5272054A, “Assay by enzyme-catalyzed isotopic exchange” (Syntex (U.S.A.) Inc., priority 1992, dated 1993)

What was measured:
D-lactate dehydrogenase = assay: Isotopic exchange assay using D-lactate dehydrogenase: specificity; assay type: biochemical; conditions: enzyme from Lactobacillus plantarum; for interference with assay results: D-lactate / pyruvate assay
Procedure: D-lactate and pyruvate in plasma are determined using D-lactate dehydrogenase from Lactobacillus leichmannii (Sigma or Boehringer-Mannheimbiochemicals) obtained by the procedure of Brandt, R. B. "Methods in Enzymology", vol. 89, page 35 (Academic Press, New York, 1982), pages 35-40 of which are incorporated herein by reference. The assay will detect D-lactate concentrations in plasma from 0.006 to 1.2 mM and at higher concentrations in food or microbiological samples. If the enzyme is from Lactobacillus plantarum obtained according to Dennis, D.; Kaplan, N. O. J. Bio.

homoserine dehydrogenase = assay: Isotopic exchange assay using homoserine dehydrogenase: specificity; assay type: biochemical, Baker's Yeast; conditions: for interference with assay results: homoserine / aspartic-β-semialdehyde assay
Procedure: Homoserine and aspartic-β-semialdehyde are determined using homoserine dehydrogenase from Baker's Yeast (Anheuser-Busch) obtained by the procedure of Black, S. "Methods in Enzymology", vol. V, page 820 (Academic Press, New York, 1962), pages 824-827 of which are incorporated herein by reference. […] Other non-interfering substances will include 3-aminopropanol, γ-hydroxybutyrate, acetaldehyde, DL-threonine, DL-serine, and DL-homocysteine. DL-glutamic γ-semialdehyde will react at 1% of the rate of aspartic-β-semialdehyde.

[1] = tested on: ω-hydroxydecanoate dehydrogenase; assay: Isotopic exchange assay using ω-hydroxydecanoate dehydrogenase: specificity; assay type: biochemical, rabbit; conditions: for interference with assay results: 10-hydroxydecanoate / 10-oxodecanoate assay; for relative rate of reaction: value in brackets after the substrate
Text: The enzyme obtained will be contaminated to some degree with L-lactate dehydrogenase (I.U.B. 1.1.1.27).

fructuronate reductase = assay: Isotopic exchange assay using fructuronate reductase: specificity; assay type: biochemical, Escheria coli K-12 strain S 3000 (Hfr H); conditions: for interference with assay results: D-mannonate / D-fructuronate assay
Procedure: D-mannonate and D-fructuronate are determined using fructuronate reductase from Escheria coli K-12 strain S 3000 (Hfr H) obtained by the procedure of Portalier, R.; Stoeber, F. "Methods in Enzymology", vol. 89, page 210 (Academic Press, New York, 1982), pages 210-218 of which are incorporated herein by reference. […] D-tagaturonate and D-altronate are 20% as active as D-fructuronate and D-mannonate, respectively.

[2] = tested on: soluble 17β-hydroxysteroid dehydrogenase; assay: Isotopic exchange assay using 17β-hydroxysteroid dehydrogenase: specificity; assay type: biochemical, human
Procedure: Estradiol-17β and estrone are determined using soluble 17β-hydroxysteroid dehydrogenase from human term placenta obtained by the procedure of Jarabak, J. "Methods in Enzymology", vol.

[3] = tested on: 15-hydroxyprostaglandin dehydrogenase; assay: Isotopic exchange assay using 15-hydroxyprostaglandin dehydrogenase: specificity; assay type: biochemical, pig
Procedure: 11α,15-dihydroxy-9-oxoprost-13-enoate and 11α-hydroxy-9, 15-dioxoprost-13-enoate are determined using 15-hydroxyprostaglandin dehydrogenase from pig lung obtained by the procedure of Anggard, E.; Samuelsson, B. "Methods in Enzymology", vol. 14, page 215 (Academic Press, New York, 1969), pages 215-219 of which are incorporated herein by reference. The assay will detect most 15-hydroxy or 15-oxo-prostaglandins except those containing the dienone chromophore such as prostaglandin B compounds and their 19-hydroxylated derivatives.

[4] = tested on: 21-hydroxysteroid dehydrogenase; assay: Isotopic exchange assay using 21-hydroxysteroid dehydrogenase: specificity; assay type: biochemical, sheep
Procedure: Cortisol and 21-dehydrocortisol are determined using AND dependent 21-hydroxysteroid dehydrogenase from sheep liver obtained by the procedure of Monder, C.; Furfine, C. S. "Methods in Enzymology", vol. […] 21-hydroxy-derivatives of cortisol, cortisone, corticosterone, 11-deoxycortisol, Δ^1 -cortisone, Δ^1 -cortisol, 11-deoxycorticosterone, and 9α-fluorocortisol will all be assayed using this enzyme.

CC(C)[C@@H](O)C(=O)O [Disovalerate]
interference with assay results (D-lactate dehydrogenase): will not interfere with the assay results

C[C@H](O)C(=O)O [L-lactate]
interference with assay results (D-lactate dehydrogenase): will not interfere with the assay results

NC(CCS)C(=O)O (racemic) [DL-homocysteine]
interference with assay results (homoserine dehydrogenase): non-interfering

NC(CO)C(=O)O (racemic) [DL-serine]
interference with assay results (homoserine dehydrogenase): non-interfering

Cc1ncc(CO)c(CO)c1O [pyridoxine]
interference with assay results [1]: will not interfere with assay results

NCCO [ethanolamine]
interference with assay results [1]: will not interfere with assay results

O=C[C@@H](O)[C@H](O)[C@@H](O)CO [L-xylose]
interference with assay results (fructuronate reductase): will not interfere with assay results

O=C[C@@H](O)[C@@H](O)[C@H](O)[C@H](O)CO [D-mannose]
interference with assay results (fructuronate reductase): will not interfere with assay results

CCCC[C@@H](O)C(=O)O
interference with assay results (D-lactate dehydrogenase): will not interfere with the assay results

O=C(CO)[C@@H](O)[C@@H](O)[C@H](O)CO [D-tagatose]
interference with assay results (fructuronate reductase): will not interfere with assay results

N[C@@H](CO)C(=O)O [serine]
interference with assay results [1]: will not interfere with assay results

C[C@H](O)[C@H]1CC[C@H]2[C@@H]3CCC4=CC(=O)CC[C@]4(C)[C@H]3CC[C@]12C [20α-hydroxy derivative]
rate of reaction relative to estrone [2]: one-fiftieth

CC(=O)[C@H]1CC[C@H]2[C@@H]3CCC4=CC(=O)CC[C@]4(C)[C@H]3CC[C@]12C [Progesterone]
rate of reaction relative to estrone [2]: one-fiftieth

CCO [ethanol]
interference with assay results [1]: will not interfere with assay results

O=C(CO)[C@H](O)[C@@H](O)[C@H](O)CO [D-sorbose]
interference with assay results (fructuronate reductase): will not interfere with assay results

C[C@]12CC[C@@H]3c4ccc(O)cc4CC[C@H]3[C@@H]1C[C@H](O)C2 [16β-estradiol]
interference with assay results ([2]; estradiol-17β / estrone assay): will not interfere with the assay results

CC=O [acetaldehyde]
interference with assay results (homoserine dehydrogenase): non-interfering

O=C[C@H](O)[C@@H](O)[C@H](O)[C@H](O)CO [D-glucose]
interference with assay results (fructuronate reductase): will not interfere with assay results

CC(C)C[C@@H](O)C(=O)O
interference with assay results (D-lactate dehydrogenase): will not interfere with the assay results

O=C[C@H](O)[C@@H](O)[C@H](O)CO [D-xylose]
interference with assay results (fructuronate reductase): will not interfere with assay results

O=C[C@H](O)[C@@H](O)[C@@H](O)[C@H](O)CO [D-galactose]
interference with assay results (fructuronate reductase): will not interfere with assay results

CC[C@@H](O)C(=O)O [2-hydroxy-D-butyrate]
interference with assay results (D-lactate dehydrogenase): will not interfere with the assay results

NC(CCC=O)C(=O)O (racemic) [DL-glutamic γ-semialdehyde]
rate of reaction relative to aspartic-β-semialdehyde (homoserine dehydrogenase): 1%

C[C@@H](O)[C@H](N)C(=O)O [threonine]
interference with assay results [1]: will not interfere with assay results

O=C(CO)[C@@H](O)[C@H](O)[C@H](O)[C@H](O)CO [D-altro-heptulose]
interference with assay results (fructuronate reductase): will not interfere with assay results

O=C(O)CCCCCCCCCO [10-hydroxycaproate]
relative rate of reaction [1]: 0.90

O=C[C@@H](O)[C@@H](O)[C@H](O)[C@H](O)C(O)CO (stereo partly drawn) [D-manno-heptose]
interference with assay results (fructuronate reductase): will not interfere with assay results

NCCCO [3-aminopropanol]
interference with assay results (homoserine dehydrogenase): non-interfering

O=C(O)CCCCCCCCCCO [11-hydroxy undecanoate]
relative rate of reaction [1]: 100

O=C[C@@H](O)[C@H](O)[C@H](O)CO [D-arabinose]
interference with assay results (fructuronate reductase): will not interfere with assay results

O=C(CO)[C@@H](O)[C@H](O)[C@H](O)CO [D-fructose]
interference with assay results (fructuronate reductase): will not interfere with assay results

O=C(CO)[C@H](O)[C@H](O)CO [D-ribulose]
interference with assay results (fructuronate reductase): will not interfere with assay results

O=C[C@H](O)[C@@H](O)[C@@H](O)CO [L-arabinose]
interference with assay results (fructuronate reductase): will not interfere with assay results

C[C@@H](O)[C@H](N)C(=O)O (racemic) [DL-threonine]
interference with assay results (homoserine dehydrogenase): non-interfering

O=C[C@H](O)[C@H](O)[C@@H](O)CO [L-lyxose]
interference with assay results (fructuronate reductase): will not interfere with assay results

nicotinamide adenine dinucleotide phosphate [NAD(P)]
replacement of NAD as cofactor [3]: will not replace NAD | replacement of NAD as cofactor [4]: will not replace NAD | substitution for NAD as cofactor (fructuronate reductase): will not substitute for AND | replacement of NAD as cofactor (D-lactate dehydrogenase): will not replace NAD

O=C[C@H](O)[C@H](O)[C@H](O)CO [D-ribose]
interference with assay results (fructuronate reductase): will not interfere with assay results
